Experimental data published in patent US12091601B2 (priority 2020, dated 2024).
Structures can show the parent of a compound that is named as a salt.

Tests used:
[1] = cited from earlier work
[2] = Inhibition and re-activation of HF: quartz dissolution; details: by themselves
Protocol: HF was inhibited by the addition of monoethanolamine (MEA), until no quartz (SiO2) was dissolved. A molar ratio of 1 MEA to HF or greater is necessary to inhibit HF's ability to dissolve quartz, and a ratio of 1.1 will used in further testing to provide a reasonable safety margin.
The inhibited HF solution can regain its quartz dissolving potential through the addition of an acidic solution, such as HCl.
To evaluate the performance of mud acids created with acid compositions comprising HCl:MEA in ratios of 4.4:1; 6.3:1; and 11.3:1, inhibited HF mud acids were prepared using HCl and acid compositions comprising HCl:MEA in ratios of 4.4:1; and 11.3:1 with various amount of free HCl (6 to 12%).

Row | Structure (SMILES) | concentration above which precipitation occurs / solubility [1] [µg/mL] | quartz dissolved [2]
1 | F[Si-2](F)(F)(F)(F)F.[Na+].[Na+] [Na2SiF6] | 6400 | 
2 | Cl [HCl] |  | essentially no quartz
